The record followed here is patent US8114867B2, “Oxazolidinone antibiotic derivatives” (Actelion Pharmaceuticals Ltd, priority 2007, dated 2012).

Converted amounts (≈) assume the structure as drawn.

The subject of the assay is S. aureus 29213. The assay is described as follows: MIC by broth microdilution (NCCLS), S. aureus 29213. Conditions: strain S. aureus 29213, cation-adjusted Mueller-Hinton Broth, pH 7.2-7.3; for MIC: Staphylococcus aureus. The format is cell-based. As for the experimental part: These assays have been performed following the description given in “Methods for dilution Antimicrobial Susceptibility Tests for Bacteria that Grow Aerobically, 4th ed.; Approved standard: NCCLS Document M7-A4; National Committee for Clinical Laboratory Standards: Villanova, Pa., USA, 1997”. Minimal inhibitory concentrations (MICs; mg/l) were determined in cation-adjusted Mueller-Hinton Broth (BBL) by a microdilution method following NCCLS guidelines (National Committee for Clinical Laboratory Standards. Methods for Dilution Antimicrobial Susceptibility). The pH of the test medium was 7.2-7.3.

For the compound `COc1ccc2ncc(F)c(CN(CCCC3CN(c4ccc5c(c4)NC(=O)CS5)C(=O)O3)C[C@@H](O)CN(C)C)c2n1` (mixture of isomers) [Example 153, 6-((RS)-5-{3-[((S)-3-dimethylamino-2-hydroxy-propyl)-(3-fluoro-6-methoxy-[1,5]naphthyridin-4-ylmethyl)-amino]-propyl}-2-oxo-oxazolidin-3-yl)-4H-1-benzo[1,4]thiazin-3-one], the “MIC S. aureus 29213” value is “≦0.063 mg/l”.

In turn, `O=C1CSc2ccc(N3CC(CCCNCc4cccc5ccccc45)OC3=O)cc2N1` (racemic) [Example 155, rac-6-(5-{3-[(naphthalen-1-ylmethyl)-amino]-propyl}-2-oxo-oxazolidin-3-yl)-4H-benzo[1,4]thiazin-3-one] yielded an MIC not above 0.063 mg/L.

`COC(=O)c1ccc(CNCCCC2CN(c3ccc4c(c3)NC(=O)CS4)C(=O)O2)c2nc(OC)ccc12` (racemic) [Example 156, rac-2-methoxy-8-({3-[2-oxo-3-(3-oxo-3,4-dihydro-2H-benzo[1,4]thiazin-6-yl)-oxazolidin-5-yl]-propylamino}-methyl)-quinoline-5-carboxylic acid methyl ester] displayed an MIC not above 0.063 mg/L.

As for `COCCOc1ccc(CNCCCC2CN(c3ccc4c(c3)NC(=O)CS4)C(=O)O2)c2nc(OC)cnc12` (racemic) [Example 157, rac-6-[5-(3-{[3-methoxy-8-(2-methoxy-ethoxy)-quinoxalin-5-ylmethyl]-amino}-propyl)-2-oxo-oxazolidin-3-yl]-4H-benzo[1,4]thiazin-3-one], the MIC was determined as 0.125 mg/L (≈ 0.226 µM).

In turn, `COc1cc2ccccc2c(CNCCCC2CN(c3ccc4c(c3)NC(=O)CS4)C(=O)O2)c1OC` (racemic) [Example 168, rac-6-(5-{3-[(2,3-dimethoxy-naphthalen-1-ylmethyl)-amino]-propyl}-2-oxo-oxazolidin-3-yl)-4H-benzo[1,4]thiazin-3-one] returned an MIC not above 0.063 mg/L.

In the case of `COc1ccc2c(OC)ccc(CNCCCC3CN(c4ccc5c(c4)NC(=O)CS5)C(=O)O3)c2c1` (racemic) [Example 169, rac-6-(5-{3-[(4,7-dimethoxy-naphthalen-1-ylmethyl)-amino]-propyl}-2-oxo-oxazolidin-3-yl)-4H-benzo[1,4]thiazin-3-one], the MIC was not above 0.063 mg/L.

`COC(=O)CCN(CCCC1CN(c2ccc3c(c2)NC(=O)CS3)C(=O)O1)Cc1ccnc2ccc(OC)nc12` (racemic) [Example 171, rac-3-((6-methoxy-[1,5]naphthyridin-4-ylmethyl)-{3-[2-oxo-3-(3-oxo-3,4-dihydro-2H-benzo[1,4]thiazin-6-yl)-oxazolidin-5-yl]-propyl}-amino)-propionic acid methyl ester] displayed an MIC not above 0.063 mg/L.

Consider `COc1cnc2cccc([C@@H](O)CNCC[C@@H]3CN(c4ccc5c(c4)OCCO5)C(=O)O3)c2n1` (relative stereo) [Example 92, (R*)-3-(2,3-dihydro-benzo[1,4]dioxin-6-yl)-5-{2-[(R*)-2-hydroxy-2-(3-methoxy-quinoxalin-5-yl)-ethylamino]-ethyl}-oxazolidin-2-one], for which the minimal inhibitory concentration (MIC) stood at 0.125 mg/L (≈ 0.268 µM).

For the compound `COc1ccc2nccc(CCNC[C@@H](O)[C@H]3CN(c4ccc5c(c4)OCCO5)C(=O)O3)c2n1` (relative stereo) [Example 97, (R*)-3-(2,3-dihydro-benzo[1,4]dioxin-6-yl)-5-{(R*)-1-hydroxy-2-[2-(6-methoxy-[1,5]naphthyridin-4-yl)-ethylamino]-ethyl}-oxazolidin-2-one], the MIC was not above 0.063 mg/L.

`COc1ccc2nccc(CCN(C)C[C@@H](O)[C@H]3CN(c4ccc5c(c4)OCCO5)C(=O)O3)c2n1` (relative stereo) [Example 99, (R*)-3-(2,3-dihydro-benzo[1,4]dioxin-6-yl)-5-((R*)-1-hydroxy-2-{[2-(6-methoxy-[1,5]naphthyridin-4-yl)-ethyl]-methyl-amino}-ethyl)-oxazolidin-2-one] registered an MIC not above 0.063 mg/L.

As for `COc1cnc2cccc(C(O)CN(C)C[C@@H](O)[C@H]3CN(c4ccc5c(c4)OCCO5)C(=O)O3)c2n1` (relative stereo) [Example 100, (R*)-3-(2,3-dihydro-benzo[1,4]dioxin-6-yl)-(R*)-5-(1-hydroxy-2-{[(RS)-2-hydroxy-2-(3-methoxy-quinoxalin-5-yl)-ethyl]-methyl-amino}-ethyl)-oxazolidin-2-one], the MIC is not above 0.063 mg/L.

On to `COc1ccc2ncc(F)c(CNCC[C@@H](N)[C@@H]3CN(c4ccc5c(c4)OCCO5)C(=O)O3)c2n1` (relative stereo) [Example 107, (S*)-5-{(R*)-1-amino-3-[(3-fluoro-6-methoxy-[1,5]naphthyridin-4-ylmethyl)-amino]-propyl}-3-(2,3-dihydro-benzo[1,4]dioxin-6-yl)-oxazolidin-2-one], for which the MIC was not above 0.063 mg/L.

`COc1ccc2nccc(CCCC[C@@H](O)[C@H]3CN(c4ccc5c(c4)OCCO5)C(=O)O3)c2n1` (relative stereo) [Example 111, (R*)-3-(2,3-dihydro-benzo[1,4]dioxin-6-yl)-5-[(R*)-1-hydroxy-5-(6-methoxy-[1,5]naphthyridin-4-yl)-pentyl]-oxazolidin-2-one] showed an MIC not above 0.063 mg/L.

`COc1cnc2cccc(/C=C/C(=O)NC[C@@H]3CN(c4ccc5c(c4)OCCO5)C(=O)O3)c2n1` [Example 5, (E)-N-[(R)-3-(2,3-dihydro-benzo[1,4]dioxin-6-yl)-2-oxo-oxazolidin-5-ylmethyl]-3-(3-methoxy-quinoxalin-5-yl)-acrylamide]: the MIC was not above 0.063 mg/L.

In turn, `CCc1ccc(N2C[C@@H](CN(C)C(=O)/C=C/c3ccnc4ccc(OC)nc34)OC2=O)cc1` [Example 14, (E)-N-[(R)-3-(4-ethyl-phenyl)-2-oxo-oxazolidin-5-ylmethyl]-3-(6-methoxy-[1,5]naphthyridin-4-yl)-N-methyl-acrylamide] gave an MIC not above 0.063 mg/L.

`N#Cc1ccc2cccc(/C=C/C(=O)NC[C@@H]3CN(c4ccc5c(c4)OCCO5)C(=O)O3)c2n1` [Example 16, (E)-3-(2-cyano-quinolin-8-yl)-N-[(R)-3-(2,3-dihydro-benzo[1,4]dioxin-6-yl)-2-oxo-oxazolidin-5-ylmethyl]-acrylamide] had an MIC of 0.125 mg/L (≈ 0.274 µM).

Compound `COc1ccc2nccc(/C=C/C(=O)N(C)C[C@@H]3CN(c4ccc(Br)c(F)c4)C(=O)O3)c2n1` [Example 22, (E)-N-[(R)-3-(4-bromo-3-fluoro-phenyl)-2-oxo-oxazolidin-5-ylmethyl]-3-(6-methoxy-[1,5]naphthyridin-4-yl)-N-methyl-acrylamide] had an MIC not above 0.063 mg/L.

Regarding `COc1cnc2cccc(CCC(=O)NC[C@@H]3CN(c4ccc5c(c4)NC(=O)CS5)C(=O)O3)c2c1` [Example 28, 3-(3-methoxy-quinolin-5-yl)-N-[(R)-2-oxo-3-(3-oxo-3,4-dihydro-2H-benzo[1,4]thiazin-6-yl)-oxazolidin-5-ylmethyl]-propionamide], the MIC is not above 0.063 mg/L.

Regarding `COc1ccc2nccc(/C=C/CNC[C@@H]3CN(c4ccc5c(c4)OCCO5)C(=O)O3)c2n1` [Example 29, (R)-3-(2,3-dihydro-benzo[1,4]dioxin-6-yl)-5-{[(E)-3-(6-methoxy-[1,5]naphthyridin-4-yl)-allylamino]-methyl}-oxazolidin-2-one], the MIC is not above 0.063 mg/L.

`COc1cnc2cccc(CCCNC[C@@H]3CN(c4ccc5c(c4)NC(=O)CS5)C(=O)O3)c2c1` [Example 35, 6-((R)-5-{[3-(3-methoxy-quinolin-5-yl)-propylamino]-methyl}-2-oxo-oxazolidin-3-yl)-4H-benzo[1,4]thiazin-3-one] had an MIC not above 0.063 mg/L.

Consider `CCC(=O)N(CCCc1ccnc2ccc(OC)nc12)C[C@@H]1CN(c2ccc3c(c2)NC(=O)CS3)C(=O)O1` [Example 38, N-[3-(6-methoxy-[1,5]naphthyridin-4-yl)-propyl]-N-[(R)-2-oxo-3-(3-oxo-3,4-dihydro-2H-benzo[1,4]thiazin-6-yl)-oxazolidin-5-ylmethyl]-propionamide], for which the MIC was not above 0.063 mg/L.

The compound `COc1cnc2cccc(CCCN(C)C[C@@H]3CN(c4ccc(C)c(F)c4)C(=O)O3)c2c1` [Example 43, (R)-3-(3-fluoro-4-methyl-phenyl)-5-({[3-(3-methoxy-quinolin-5-yl)-propyl]-methyl-amino}-methyl)-oxazolidin-2-one] gave an MIC not above 0.063 mg/L.

In turn, `COc1ccc2ncc(F)c(C(O)CCCCC3CN(c4ccc5c(c4)OCCO5)C(=O)O3)c2n1` (stereo not drawn) [Example 62, 3-(2,3-dihydro-benzo[1,4]dioxin-6-yl)-5-[5-(3-fluoro-6-methoxy-[1,5]naphthyridin-4-yl)-5-hydroxy-pentyl]-oxazolidin-2-one] displayed an MIC not above 0.063 mg/L.

Compound `COc1ccc2nccc(NC(=O)CNC[C@@H]3CN(c4ccc5c(c4)NC(=O)CS5)C(=O)O3)c2n1` [Example 91, N-(6-methoxy-[1,5]naphthyridin-4-yl)-2-{[(R)-2-oxo-3-(3-oxo-3,4-dihydro-2H-benzo[1,4]thiazin-6-yl)-oxazolidin-5-ylmethyl]-amino}-acetamide] showed an MIC not above 0.063 mg/L.

In the case of `COc1ccc2nccc(CCCCNC[C@@H]3CN(c4ccc5c(c4)NC(=O)CS5)C(=O)O3)c2n1` [Example 113, 6-((R)-5-{[4-(6-methoxy-[1,5]naphthyridin-4-yl)-butylamino]-methyl}-2-oxo-oxazolidin-3-yl)-4H-benzo[1,4]thiazin-3-one], the MIC was not above 0.063 mg/L.

Consider `COc1ccc2nccc(CCCCC[C@@H]3CN(c4ccc5c(c4)NC(=O)CS5)C(=O)O3)c2n1` [Example 125, 6-{(R)-5-[5-(6-methoxy-[1,5]naphthyridin-4-yl)-pentyl]-2-oxo-oxazolidin-3-yl}-4H-benzo[1,4]thiazin-3-one], for which the MIC is not above 0.063 mg/L.

`COc1ccc2ncc(F)c(CCCN(C[C@H](O)CO)C[C@@H]3CN(c4ccc5c(c4)OCCO5)C(=O)O3)c2n1` [Example 135, (R)-3-(2,3-dihydro-benzo[1,4]dioxin-6-yl)-5-({((S)-2,3-dihydroxy-propyl)-[3-(3-fluoro-6-methoxy-[1,5]naphthyridin-4-yl)-propyl]-amino}-methyl)-oxazolidin-2-one]: the MIC was not above 0.063 mg/L.
